From patent publication US8759535B2, “Substituted fused imidazole derivatives, pharmaceutical compositions, and methods of use thereof” (High Point Pharmaceuticals, LLC, priority 2010, dated 2014)

System: HMOX1
Experiment: HMOX1 Protein Assay (immunostaining of HO-1 in NHLF cells, GE InCell 1000)
Type: cell-based
Details: Homo sapiens, fold change above DMSO treated cells, 16 h; for fold induction at 5 µM: 5 μM compound
Method: Cell Culture. Normal Human Fibroblast (NHLF), were obtained from Lonza. Cultures of cells were maintained in Fibroblast Growth Medium (FGM-2) medium supplemented with 2% fetal bovine serum (FBS), Fibroblast Growth Factor (hFGF-B) 0.5 mL, Insulin 0.5 mL, gentamicin/amphotericin-B 0.5 mL at 37° C. in a humidified atmosphere of 5% CO2. Cells were grown to 80% confluence before treating.
HMOX1 Protein Assay. NHLF cells were grown to 80% confluency and harvested by washing once with HEPES and then trypsinized. Equal numbers (2×10^3 cells per well) of NHLF cells were plated in 384 well optilux tissue culture (BD) plates. Cells were incubated overnight in FGM-2 medium prior to exposure to compound. Cells were treated with either vehicle (DMSO) or compound (dissolved in vehicle) for 16 h. Cells were washed 2× with 1×PBS and fixed with 4% Paraformaldyhyde for 15 min. The fixed cells were then permeabalized with 0.1% Triton X-100 and blocked with 5% BSA in 1×PBS 0.05% Tween-20 for 15 min. HO-1 antibody (abcam) was used for immunostaining at 1:300 dilution in 1% BSA in 1×PBS for 1 hour. Cells were washed 2× with 1×PBS and secondary antibody goat anti-mouse Alexa 488 1:400 dilution (Invitrogen); Hoechst 1:2000 (Invitrogen) in 1% BSA in 1×PBS for 1 hour. Plate was washed 5× with 1×PBS and read at Hoechst Ex.360 […]; Alexa 488 Ex.480 Em. 535 using GE InCell 1000. Results analyzed using GE InCell Analyzer software. Heme oxygenase data represents the fold change above DMSO treated cells.
In general, the fold induction data are reported for 5 μM concentration (i.e., μ-moles of compound to total volume, where the solvent is about 99.2% media and 0.8% DMSO). In some instances, the reported data are for 3 μM concentration, which are indicated by an asterisk (*).

Structure (SMILES) | fold induction at 3 µM (3 μM compound (asterisk)) | fold induction at 5 µM
CC(O)C(=O)N1CC[C@@H](NC(=O)c2ccc3c(c2)nc(Nc2nc4ccc(Cl)cc4s2)n3C)C1 (stereo in doubt) [Example 295, 2-(6-Chloro-benzothiazol-2-ylamino)-1-methyl-1H-benzoimidazole-5-carboxylic acid [(R)-1-((R)-2-hydroxy-propionyl)-pyrrolidin-3-yl]-amide] | 29 | –
CNC(=O)c1ccc2c(c1)nc(Nc1nc3ccc(OC(F)(F)F)cc3s1)n2C [Example 1, 1-Methyl-2-(6-trifluoromethoxy-benzothiazol-2-ylamino)-1H-benzoimidazole-5-carboxylic acid methyl amide] | – | 19.4
COC(=O)c1ccc2c(c1)nc(Nc1nc3ccc(OC(F)(F)F)cc3s1)n2C [Example 2, 1-Methyl-2-(6-trifluoromethoxy-benzothiazol-2-ylamino)-1H-benzoimidazole-5-carboxylic acid methyl ester] | – | 6.51
Cn1c(Nc2nc3ccc(OC(F)(F)F)cc3s2)nc2cc(C(=O)O)ccc21 [Example 3, 1-Methyl-2-(6-trifluoromethoxy-benzothiazol-2-ylamino)-1H-benzoimidazole-5-carboxylic acid] | – | 12.5
CCOCCNC(=O)c1ccc2c(c1)nc(Nc1nc3ccc(OC(F)(F)F)cc3s1)n2C [Example 4, 1-Methyl-2-(6-trifluoromethoxy-benzothiazol-2-ylamino)-1H-benzoimidazole-5-carboxylic acid (2-ethoxy-ethyl)-amide] | – | 11.9
Cn1c(Nc2nc3ccc(OC(F)(F)F)cc3s2)nc2cc(C(=O)NCC3CC3)ccc21 [Example 5, 1-Methyl-2-(6-trifluoromethoxy-benzothiazol-2-ylamino)-1H-benzoimidazole-5-carboxylic acid cyclopropylmethyl-amide] | – | 8.33
CCNC(=O)c1ccc2c(c1)nc(Nc1nc3ccc(OC(F)(F)F)cc3s1)n2C [Example 6, 1-Methyl-2-(6-trifluoromethoxy-benzothiazol-2-ylamino)-1H-benzoimidazole-5-carboxylic acid ethylamide] | – | 9.45
Cn1c(Nc2nc3ccc(OC(F)(F)F)cc3s2)nc2cc(C(=O)N3CCCC3)ccc21 [Example 7, [1-Methyl-2-(6-trifluoromethoxy-benzothiazol-2-ylamino)-1H-benzoimidazol-5-yl]-pyrrolidin-1-yl-methanone] | – | 5.4
COCCNC(=O)c1ccc2c(c1)nc(Nc1nc3ccc(OC(F)(F)F)cc3s1)n2C [Example 8, 1-Methyl-2-(6-trifluoromethoxy-benzothiazol-2-ylamino)-1H-benzoimidazole-5-carboxylic acid (2-methoxy-ethyl)-amide] | – | 18.3
Cn1c(Nc2nc3ccc(OC(F)(F)F)cc3s2)nc2cc(C(=O)NCCF)ccc21 [Example 9, 1-Methyl-2-(6-trifluoromethoxy-benzothiazol-2-ylamino)-1H-benzoimidazole-5-carboxylic acid (2-fluoro-ethyl)-amide] | – | 11.2
Cn1c(Nc2nc3ccc(OC(F)(F)F)cc3s2)nc2cc(C(=O)NCCO)ccc21 [Example 10, 1-Methyl-2-(6-trifluoromethoxy-benzothiazol-2-ylamino)-1H-benzoimidazole-5-carboxylic acid (2-hydroxy-ethyl)-amide] | – | 19.9
Cn1c(Nc2nc3ccc(OC(F)(F)F)cc3s2)nc2cc(C(=O)NCCCn3cccn3)ccc21 [Example 11, 1-Methyl-2-(6-trifluoromethoxy-benzothiazol-2-ylamino)-1H-benzoimidazole-5-carboxylic acid (3-pyrazol-1-yl-propyl)-amide] | – | 25
CCCNC(=O)c1ccc2c(c1)nc(Nc1nc3ccc(OC(F)(F)F)cc3s1)n2C [Example 12, 1-Methyl-2-(6-trifluoromethoxy-benzothiazol-2-ylamino)-1H-benzoimidazole-5-carboxylic acid propylamide] | – | 16.2
Cn1c(Nc2nc3ccc(OC(F)(F)F)cc3s2)nc2cc(C(=O)NCCCO)ccc21 [Example 13, 1-Methyl-2-(6-trifluoromethoxy-benzothiazol-2-ylamino)-1H-benzoimidazole-5-carboxylic acid (3-hydroxy-propyl)-amide] | – | 20.1
CCOCCCNC(=O)c1ccc2c(c1)nc(Nc1nc3ccc(OC(F)(F)F)cc3s1)n2C [Example 14, 1-Methyl-2-(6-trifluoromethoxy-benzothiazol-2-ylamino)-1H-benzoimidazole-5-carboxylic acid (3-ethoxy-propyl)-amide] | – | 22
Cn1c(Nc2nc3ccc(OC(F)(F)F)cc3s2)nc2cc(C(=O)NN3CCOCC3)ccc21 [Example 15, 1-Methyl-2-(6-trifluoromethoxy-benzothiazol-2-ylamino)-1H-benzoimidazole-5-carboxylic acid morpholin-4-ylamide] | – | 22.8
Cn1c(Nc2nc3ccc(OC(F)(F)F)cc3s2)nc2cc(C(=O)NCC(F)(F)F)ccc21 [Example 16, 1-Methyl-2-(6-trifluoromethoxy-benzothiazol-2-ylamino)-1H-benzoimidazole-5-carboxylic acid (2,2,2-trifluoro-ethyl)-amide] | – | 30
Cn1c(Nc2nc3ccc(OC(F)(F)F)cc3s2)nc2cc(C(=O)NCC3CCOCC3)ccc21 [Example 17, 1-Methyl-2-(6-trifluoromethoxy-benzothiazol-2-ylamino)-1H-benzoimidazole-5-carboxylic acid (tetrahydro-pyran-4-ylmethyl)-amide] | – | 21.4
Cn1c(Nc2nc3ccc(OC(F)(F)F)cc3s2)nc2cc(C(=O)NCC3CCCO3)ccc21 (centres unmarked) [Example 18, 1-Methyl-2-(6-trifluoromethoxy-benzothiazol-2-ylamino)-1H-benzoimidazole-5-carboxylic acid (tetrahydro-furan-2-ylmethyl)-amide] | – | 20.1
COCCCNC(=O)c1ccc2c(c1)nc(Nc1nc3ccc(OC(F)(F)F)cc3s1)n2C [Example 19, 1-Methyl-2-(6-trifluoromethoxy-benzothiazol-2-ylamino)-1H-benzoimidazole-5-carboxylic acid (3-methoxy-propyl)-amide] | – | 21.1
COCC(C)NC(=O)c1ccc2c(c1)nc(Nc1nc3ccc(OC(F)(F)F)cc3s1)n2C (centres unmarked) [Example 20, 1-Methyl-2-(6-trifluoromethoxy-benzothiazol-2-ylamino)-1H-benzoimidazole-5-carboxylic acid (2-methoxy-1-methyl-ethyl)-amide] | – | 18.6
CC(O)CNC(=O)c1ccc2c(c1)nc(Nc1nc3ccc(OC(F)(F)F)cc3s1)n2C (centres unmarked) [Example 21, 1-Methyl-2-(6-trifluoromethoxy-benzothiazol-2-ylamino)-1H-benzoimidazole-5-carboxylic acid (2-hydroxy-propyl)-amide] | – | 19.6
COC(C)(C)CNC(=O)c1ccc2c(c1)nc(Nc1nc3ccc(OC(F)(F)F)cc3s1)n2C [Example 22, 1-Methyl-2-(6-trifluoromethoxy-benzothiazol-2-ylamino)-1H-benzoimidazole-5-carboxylic acid (2-methoxy-2-methyl-propyl)-amide] | – | 18.7
COC(=O)c1ccc2c(c1)nc(Nc1nc3ccc(C(F)(F)F)cc3s1)n2C [Example 23, 1-Methyl-2-(6-trifluoromethyl-benzothiazol-2-ylamino)-1H-benzoimidazole-5-carboxylic acid methyl ester] | – | 4.11
Cn1c(Nc2nc3ccc(C(F)(F)F)cc3s2)nc2cc(C(=O)O)ccc21 [Example 24, 1-Methyl-2-(6-trifluoromethyl-benzothiazol-2-ylamino)-1H-benzoimidazole-5-carboxylic acid] | – | 20.7
COCCNC(=O)c1ccc2c(c1)nc(Nc1nc3ccc(C(F)(F)F)cc3s1)n2C [Example 25, 1-Methyl-2-(6-trifluoromethyl-benzothiazol-2-ylamino)-1H-benzoimidazole-5-carboxylic acid (2-methoxy-ethyl)-amide] | – | 27.1
CCNC(=O)c1ccc2c(c1)nc(Nc1nc3ccc(C(F)(F)F)cc3s1)n2C [Example 26, 1-Methyl-2-(6-trifluoromethyl-benzothiazol-2-ylamino)-1H-benzoimidazole-5-carboxylic acid ethylamide] | – | 15.5
Cn1c(Nc2nc3ccc(C(F)(F)F)cc3s2)nc2cc(C(=O)NCCO)ccc21 [Example 27, 1-Methyl-2-(6-trifluoromethyl-benzothiazol-2-ylamino)-1H-benzoimidazole-5-carboxylic acid (2-hydroxy-ethyl)-amide] | – | 23.2
COC(=O)c1ccc2c(c1)nc(Nc1nc3ccc(Cl)cc3s1)n2C [Example 28, 2-(6-Chloro-benzothiazol-2-ylamino)-1-methyl-1H-benzoimidazole-5-carboxylic acid methyl ester] | – | 10.1
